These results are taken from PubChem BioAssay AID2366 (The Scripps Research Institute Molecular Screening Center, 2010).

This experiment addresses Protein phosphatase methylesterase 1 (Homo sapiens) (UniProt Q9Y570). As to the kind of experiment: endogenous PME-1 and serine hydrolase inhibition – cell lysate, mouse brain cytosol, FP-rhodamine, gel ABPP, selectivity assay for PME-1 inhibitor project, dose response (AID 2366).

Molecules are shown by their SMILES. Activity calls are given as the source filed them.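 How the source made its calls: active means compounds picked for the later follow-up tests because of their potency and selectivity; inactive means compounds skipped in follow-up as weaker or less selective.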

What is called IC50 is the concentration needed to halve the response being measured.

Protein phosphatase methylesterase 1 (Homo sapiens), sequence (Q9Y570 whole entry, looked up): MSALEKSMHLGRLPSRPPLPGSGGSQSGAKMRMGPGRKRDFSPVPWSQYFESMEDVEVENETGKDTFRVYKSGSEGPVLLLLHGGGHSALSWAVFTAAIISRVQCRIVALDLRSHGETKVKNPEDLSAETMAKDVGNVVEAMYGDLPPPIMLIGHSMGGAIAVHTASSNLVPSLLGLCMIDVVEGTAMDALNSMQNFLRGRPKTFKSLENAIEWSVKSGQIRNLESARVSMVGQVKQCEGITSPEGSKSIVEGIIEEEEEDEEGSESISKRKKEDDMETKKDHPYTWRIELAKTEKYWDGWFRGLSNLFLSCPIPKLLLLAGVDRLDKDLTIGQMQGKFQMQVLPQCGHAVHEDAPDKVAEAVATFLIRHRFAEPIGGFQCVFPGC

Take `CS(=O)(=O)/C(C#N)=C/c1cccn1S(=O)(=O)c1cccc(C#N)c1`: the IC50 was 2.5 µM.
Next, `CS(=O)(=O)/C(C#N)=C/c1cccn1S(=O)(=O)c1ccc([N+](=O)[O-])cc1`: 3 µM.
The value for `N#C/C(=C\c1cccn1S(=O)(=O)c1ccccc1)S(=O)(=O)c1ccccc1` was > 20 µM (inactive); that for `N#C/C(=C\c1cccn1S(=O)(=O)c1cccc(C#N)c1)S(=O)(=O)c1ccc(F)cc1` was 0.64 µM; that for `CC(C)(C)S(=O)(=O)/C(C#N)=C/c1cccn1S(=O)(=O)c1ccccc1` was 6.8 µM.
The value for `CC(C)(C)S(=O)(=O)/C(C#N)=C/c1cccn1S(=O)(=O)c1cccc(C#N)c1` was 3.4 µM; that for `CS(=O)(=O)/C(C#N)=C/c1cccn1S(=O)(=O)c1ccc(C#N)cc1` was 4 µM; that for `CS(=O)(=O)/C(C#N)=C/c1cccn1S(=O)(=O)c1c(F)c(F)c(F)c(F)c1F` was > 20 µM (inactive).
On to `CS(=O)(=O)/C(C#N)=C/c1cccn1S(=O)(=O)c1ccccc1`, for which the IC50 is 10.8 µM.
